Assay: gradient 5% acetonitrile 3 min, to 50% in 2 min, to 85% in 15 min, held 3 min, 100 µL/min
Conditions: column: Zorbax Extend-C18 2.1 x 50 mm; eluents: water / acetonitrile, 0.1% formic acid
Procedure, shortened: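 Pure standards were analyzed in mixtures of ~100 molecules using HPLC coupled to a quadrupole time-of-flight mass spectrometer, in both positive and negative ionization mode. Separation used a Zorbax Extend-C18 column (2.1 × 50 mm, 1.8 μm) at 100 μL/min, with water and acetonitrile each containing 0.1% formic acid. Dead and dwell volumes were 40 μL and 900 μL, and data were collected over 3 months. Retention time was read from computationally picked adduct peaks, each inspected manually.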

SMILES | RP-LC retention time [s]
O=C(C1CCN(c2cncnc2N2CCCC2)CC1)N1CCN(c2ccccn2)CC1 | 552
COc1ccc(-c2ncccc2CNS(=O)(=O)c2ccc(C(F)(F)F)cc2)cc1 | 764
CC(C)N1C(=O)C(C)(C(=O)NCc2ccccc2)Oc2cccnc21 (configuration not stated) | 912
COc1ccc2c(c1)C1(CCN(C(=O)c3ccccc3Cl)C1)C(=O)N2 (configuration not stated) | 708
COc1ccccc1-n1ccn(Cc2nc(-c3ccc(Cl)cc3)no2)c(=O)c1=O | 874
O=C(NC1CCCCC1)C1CCc2sc(C(=O)N3CCOCC3)cc2C1 (configuration not stated) | 741
COCCN1C(=O)Cc2ccccc2C1C(=O)NCc1ccc(C(C)C)cc1 (configuration not stated) | 861
CNC(=O)c1sc2nc(-c3ccc(OC)cc3)c(NCCOC)n2c1C | 656
CCn1nnc2c(SCc3cc(OC)cc(OC)c3)ncnc21 | 917
COc1ccc(-c2ccc(=O)n(Cc3nc(-c4ccccc4)no3)n2)cc1OC | 900
CCC(C)NC(=O)c1cc(C)n(C)n1 (configuration not stated) | 660
O=C(c1csc(-c2ccc(N3CCSCC3)nc2)n1)N1CCC2(CC1)OCCO2 | 822
COCCCNC(=O)CC1Sc2ncccc2N(C)C1=O (configuration not stated) | 600
CCCCn1cc(S(=O)(=O)Nc2ccc(F)c(F)c2)c2cccnc21 | 966
COC(=O)c1ccc(-c2nc3cnccn3c2Nc2ccc(C(C)C)cc2)cc1 | 1070

Continued, values first:

RP-LC retention time [s] | SMILES
868 | CCOc1ccccc1NC(=O)C1CCN(S(=O)(=O)c2cn(C)cn2)CC1
631 | COc1cc(NC(C)=O)c2ncccc2c1NC(C)=O
789 | Cc1cc(C)n2nc(SCC(=O)Nc3cccc(Cl)c3)nc2n1
659 | Cn1nc2n(c1=O)CCN(S(=O)(=O)Cc1ccccc1)CC2
1060 | Cc1ccc2c(c1)N(Cc1ccc(F)cc1)N=C(C(=O)N1CCC(C)CC1)S2(=O)=O
952 | Cc1ccc(Cn2c(CN3CCC(C(=O)NCCC4=CCCCC4)CC3)cc3ccccc32)cc1
748 | COc1ccc(N2CC(c3nc(-c4ccc(CNC(=O)C5CC5)s4)no3)CC2=O)cc1 (configuration not stated)
759 | COc1ccccc1C(=O)N1CCCC1COc1ccc(C(=O)NC2CC2)cc1 (configuration not stated)
967 | Cc1nc(-c2ccccc2)cc2nn(CC(=O)Nc3ccc(F)cc3Cl)c(=O)n12
1070 | O=C(c1cccs1)N1CCN(c2ccc(-c3noc(C4CCC4)n3)cc2)CC1
839 | COc1ccccc1NC(=O)Cn1nc2c(Oc3ccccc3C)nccn2c1=O
661 | CS(=O)(=O)c1ccc(NC(=O)C2CN(C(=O)c3ccc(F)c(F)c3)C2)cc1
600 | Cc1cc(F)ccc1NC(=O)c1cn2c(n1)CCCC2
763 | CC(C)N1CCn2cc(S(=O)(=O)NCc3ccc(F)cc3F)cc2C1=O
1350 | CC1=C(c2ccc(C)c(C)c2)S(=O)(=O)N=C1N1CCC(NC(=O)NC(C)(C)C)CC1
685 | CN1CCN(C(CNC(=O)C(=O)Nc2ccc(F)cc2F)c2ccc3c(c2)OCO3)CC1 (configuration not stated)
1050 | COc1ccc(-c2csc3c(=O)n(Cc4ccc(F)cc4)cnc23)cc1
913 | COC(=O)C1=CN(c2cccc(Br)c2)c2ccc(F)cc2S1(=O)=O
882 | O=C(C1=CN(c2ccccc2)c2cc(F)ccc2S1(=O)=O)N1CCCCC1
882 | CCCS(=O)(=O)N1CCCc2ccc(NC(=O)NC3CCCCC3)cc21
570 | Cn1nc2n(c1=O)CCN(C(=O)c1ccsc1)CC2
725 | COc1ccc(NC(=O)c2ccc(C(=N)N(C)C)cc2)c(C(=O)Nc2ccc(Cl)cn2)c1
